Each structure is given as a SMILES string.

Assay [1] relates to IL-2 MALT1-dependent release in Jurkat cells. Description: cells. The format is cell-based. To be noted: Homo sapiens; Jurkat cells stimulated with antiCD3/antiCD28 for 24 h; IL-2 ELISA; read-out: EC50, IL-2 MALT1-dependent release inhibition. The essentials: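 Jurkat cells (100,000/well, RPMI 1640 with 10% FBS, 37 °C, 5% CO2) were preincubated with compound or DMSO for 0.5-1 h, in duplicate. Stimulation used anti-CD3 (HIT3a) plus anti-CD28 antibodies for 24 h. IL-2 in supernatants was then measured by ELISA.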

Assay [2] addresses T1, MALT1 (Homo sapiens (Human), UniProt Q9UDY8). Description: MALT1 degradation in JeKo-1 cells (capillary Western blotting). It is filed as cell-based. The note with it: 48 h incubation, read-out: EC50 for MALT1 degradation. The protocol: JeKo-1 cells (ATCC, USA) were cultured in RPMI 1640 supplemented with 10% FBS at 37° C., 5% CO2 in a humidified cell culture incubator. 1 ml of cells (1*10^6 cells per well) was transferred to each well of a 24-well plate (Greiner, #662160). Then 40 μl/well 25× compound (or DMSO) were added. Cells were incubated with compound in a humidified cell culture incubator for 48 h. At the end of incubation, cell suspension was transferred from wells into 2 ml tubes (Greiner, #623201), centrifuged at 300 g for 5 min and the supernatant was discarded. Then cell pellets were washed with cooled PBS. Cell lysates were prepared by adding 40 μl of RIPA lysis buffer (ProteinSimple, #040-483) to the cell pellet. […] Next, protein concentration in cell lysates was determined by Pierce™ Coomassie (Bradford) Protein Assay Kit (Thermo Scientific, #23200) according to manufacturer's instructions.
Levels of MALT1, Bcl10 and CYLD proteins in prepared cell lysates were assessed in capillary Western blotting system Jess (JS-3030, ProteinSimple) using 12-230 kDa Separation Module (ProteinSimple #SM-W004), Anti-Mouse Detection Module (ProteinSimple #DM-002) and Anti-Rabbit Detection Module (ProteinSimple #DM-001) according to manufacturer's instructions. […] Beta-actin was used as a loading control detected by anti-beta-actin primary antibodies (RnD Systems, #MAB8929) at 1:100 dilution.

The target in assay [3] is T1, MALT1. Nature of the assay: MALT1 enzymatic activity inhibition (fluorescence, Ac-LRSR-AMC substrate). To be noted: recombinant MALT1 1.5 ng/μl, Ac-LRSR-AMC 1 μM. The format is biochemical. The method in brief:
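Recombinant human MALT1 (1.5 ng/μl final) preincubated 10 min at rt with compounds in 50 mM HEPES pH 7.2-7.4, 100 mM NaCl, 900 mM sodium citrate, 10 mM DTT; 1 μM Ac-LRSR-AMC then added. AMC fluorescence read at start and after 30 min 37 °C plus 30 min rt; difference gives signal, % inhibition fitted to IC50.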

T1 sequence (Q9UDY8 whole entry): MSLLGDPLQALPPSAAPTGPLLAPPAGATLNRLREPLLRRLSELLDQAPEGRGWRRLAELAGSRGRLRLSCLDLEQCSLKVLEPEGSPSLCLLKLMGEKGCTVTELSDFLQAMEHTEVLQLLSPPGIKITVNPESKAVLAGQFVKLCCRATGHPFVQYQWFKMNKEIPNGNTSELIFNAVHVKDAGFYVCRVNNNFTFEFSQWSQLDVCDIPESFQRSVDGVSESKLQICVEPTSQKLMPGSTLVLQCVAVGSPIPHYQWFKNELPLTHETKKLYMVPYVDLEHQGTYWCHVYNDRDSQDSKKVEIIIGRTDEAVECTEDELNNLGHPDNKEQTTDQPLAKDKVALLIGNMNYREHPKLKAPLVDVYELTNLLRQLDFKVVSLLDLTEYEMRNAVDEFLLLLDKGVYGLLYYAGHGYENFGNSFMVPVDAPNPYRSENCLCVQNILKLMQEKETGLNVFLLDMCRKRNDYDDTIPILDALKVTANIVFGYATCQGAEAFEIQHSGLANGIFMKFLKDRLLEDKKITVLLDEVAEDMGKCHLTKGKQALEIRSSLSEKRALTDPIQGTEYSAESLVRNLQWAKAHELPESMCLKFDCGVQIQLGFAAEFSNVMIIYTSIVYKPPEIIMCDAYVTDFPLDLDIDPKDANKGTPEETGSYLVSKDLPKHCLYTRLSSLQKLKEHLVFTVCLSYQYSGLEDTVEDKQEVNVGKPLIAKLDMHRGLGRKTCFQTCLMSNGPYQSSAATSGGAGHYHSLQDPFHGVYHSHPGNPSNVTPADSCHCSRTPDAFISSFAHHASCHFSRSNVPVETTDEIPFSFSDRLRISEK

With `Cc1cc(NC(=O)Nc2cnc3ccnn3c2C2CCCO2)cnc1-c1noc(CCCCCC(=O)N2CCN(c3ccc4c(c3)CN(C3CCC(=O)NC3=O)C4=O)CC2)n1` (stereo not drawn) [Compound 2, 1-[6-[5-[6-[4-[2-(2,6-dioxo-3-piperidyl)-1-oxo-isoindolin-5-yl]piperazin-1-yl]-6-oxo-hexyl]-1,2,4-oxadiazol-3-yl]-5-methyl-3-pyridyl]-3-(7-tetrahydrofuran-2-ylpyrazolo[1,5-a]pyrimidin-6-yl)urea], the values for the EC50 in assay [1] and in assay [3] were 500 to 1000 nM and not above 0.2 µM, respectively. Moreover, the DC50 in assay [2] worked out at 85 nM.
